Reference: the NIST ThermoML archive (doi:10.1016/j.fluid.2008.09.004)

Tests used:
[1] = 101.33 kPa, Liquid; for speed of sound: Sing-around technique in a fixed-path interferometer; for mass density: Vibrating tube method
[2] = molar heat capacity at constant pressure; details: 101.33 kPa, Liquid, Small sample (50 mg) DSC
[3] = excess molar enthalpy (molar enthalpy of mixing); xn = mol fraction of the nth substance listed; details: 303.15 K, 101 kPa, Liquid, Calvet calorimetry

CCCC[n+]1cccc(C)c1.F[B-](F)(F)F [1-butyl-3-methylpyridinium tetrafluoroborate]
[1]
Details | speed of sound [m/s]
293.15 K | 1599.8
298.15 K | 1587
303.15 K | 1574.8
308.15 K | 1562.6
313.15 K | 1550.7
318.15 K | 1538.9

CCCCn1cc[n+](C)c1.COS(=O)(=O)[O-] [1-butyl-3-methylimidazolium methyl sulfate]
Details | mass density, [1] [kg/m3] | molar heat capacity at constant pressure, [2] [J/K/mol]
293.15 K | 1210.7 | 413.7
298.15 K | 1207.4 | 416.2
303.15 K | 1204.1 | 418.5
308.15 K | 1200.8 | 420.9
313.15 K | 1197.5 | 423.3
318.15 K | 1194.2 | 425.6

CCOS(=O)(=O)[O-].CCn1cc[n+](C)c1 [1-ethyl-3-methylimidazolium ethyl sulfate]
Details | mass density, [1] [kg/m3] | molar heat capacity at constant pressure, [2] [J/K/mol]
293.15 K | 1240.6 | 392.2
298.15 K | 1237.2 | 394.4
303.15 K | 1233.8 | 396.8
308.15 K | 1230.4 | 399.3
313.15 K | 1227 | 402
318.15 K | 1223.7 | 404.9

CCCCCCn1cc[n+](C)c1.F[B-](F)(F)F [1-hexyl-3-methylimidazolium tetrafluoroborate]
Details | mass density, [1] [kg/m3] | molar heat capacity at constant pressure, [2] [J/K/mol] | speed of sound, [1] [m/s]
293.15 K | 1148.8 | 425.1 | 1532.7
298.15 K | 1145.3 | 427.8 | 1519.5
303.15 K | 1141.8 | 430.4 | 1506.9
308.15 K | 1138.4 | 433 | 1494.5
313.15 K | 1135 | 435.5 | 1482.3
318.15 K | 1131.6 | 438.1 | 1470.5

CCCC[n+]1cccc(C)c1.F[B-](F)(F)F [1-butyl-3-methylpyridinium tetrafluoroborate] + CCO
[3]
Details | excess molar enthalpy [kcal/mol]
x1 = 0.0306 | 0.132
x1 = 0.1031 | 0.324
x1 = 0.1976 | 0.483
x1 = 0.3036 | 0.588
x1 = 0.3966 | 0.621
x1 = 0.5083 | 0.596
x1 = 0.6001 | 0.535
x1 = 0.692 | 0.45
x1 = 0.8061 | 0.301
x1 = 0.8847 | 0.187

CCCCn1cc[n+](C)c1.F[B-](F)(F)F [1-butyl-3-methylimidazolium tetrafluoroborate]
Details | mass density, [1] [kg/m3] | molar heat capacity at constant pressure, [2] [J/K/mol]
293.15 K | 1207.6 | 359.8
298.15 K | 1204.1 | 363.1
303.15 K | 1200.5 | 366.1
308.15 K | 1197 | 368.7
313.15 K | 1193.4 | 371
318.15 K | 1189.9 | 372.9

CCn1cc[n+](C)c1.O=S(=O)([O-])C(F)(F)F [1-ethyl-3-methylimidazolium trifluoromethanesulfonate]
Details | mass density, [1] [kg/m3] | molar heat capacity at constant pressure, [2] [J/K/mol]
293.15 K | 1389.5 | 361.1
298.15 K | 1385.3 | 363.2
303.15 K | 1381.1 | 365.3
308.15 K | 1376.9 | 367.4
313.15 K | 1372.7 | 369.6
318.15 K | 1368.6 | 371.8

CCO [ethanol]
Details | mass density, [1] [kg/m3] | molar heat capacity at constant pressure, [2] [J/K/mol] | speed of sound, [1] [m/s]
293.15 K | 789.6 | 111.3 | 1159.5
298.15 K | 785.3 | 113.3 | 1142.5
303.15 K | 781 | 115.3 | 1125.5
308.15 K | 776.7 | 117.5 | 1108.6
313.15 K | 772.3 | 119.7 | 1091.8
318.15 K | 767.8 | 122.1 | 1075.1

CCCCn1cc[n+](C)c1.O=S(=O)([O-])C(F)(F)F [1-butyl-3-methylimidazolium trifluoromethanesulfonate]
Details | mass density, [1] [kg/m3] | molar heat capacity at constant pressure, [2] [J/K/mol] | speed of sound, [1] [m/s]
293.15 K | 1301.6 | 421.6 | 1403.4
298.15 K | 1297.6 | 424.1 | 1392.1
303.15 K | 1293.7 | 426.7 | 1380.9
308.15 K | 1289.7 | 429.5 | 1369.8
313.15 K | 1285.8 | 432.4 | 1358.8
318.15 K | 1281.9 | 435.5 | 1348.1
